Assay results: ChEMBL document CHEMBL5257103, “Identification of small molecule inhibitors against MMP-14 via High-Throughput screening” (Bioorg Med Chem, 2023)
Calls of active or inactive are those of the source. The rule behind the calls is not given here.

Experiments:
[1] = target: T1, Matrix metalloproteinase-14 (Homo sapiens, UniProt P50281); assay: Inhibition of MMP-14 (unknown origin) using 5-FAM-TDVPNGFHVS (QXL520)-NH2 as fluorogenic substrate at 47.6 uM preincubated for 10 mins followed by substrate addition by primary HTS analysis relative to control
[2] = target: T1, Matrix metalloproteinase-14; assay: Inhibition of MMP-14 (unknown origin) using 5-FAM-TDVPNGFHVS (QXL520)-NH2 as fluorogenic substrate at 12.5 to 200 uM preincubated for 10 mins followed by substrate addition and measured for 50 mins by microplate reader assay; details: dose 12.5-200 µM, time 60.0 min
[3] = target: 72 kDa type IV collagenase (Mus musculus) (UniProt P33434); assay: Inhibition of MMP-2 in mouse fibroblast assessed as reduction in concanavalin-induced MMP-2 activity by measuring gelatin digestion incubated for 24 hrs by SDS-PAGE gel electrophoresis based gelatin zymography analysis; assay type: cell-based
[4] = target: T1, Matrix metalloproteinase-14; assay: Inhibition of MMP-14 (unknown origin) using 5-FAM-TDVPNGFHVS (QXL520)-NH2 as fluorogenic substrate preincubated for 10 mins followed by substrate addition and measured for 50 mins by microplate reader assay
Collagenase 3 [5] = target: T2, Collagenase 3 (Homo sapiens, UniProt P45452); assay: Inhibition of MMP-13 (unknown origin) using QXL520-gamma-Abu-Pro-Cha-Abu-Smc-His-Ala-Dab(5-FAM)-Ala-Lys-NH2 as fluorogenic substrate preincubated for 10 mins followed by substrate addition and measured for 25 mins by microplate reader assay
[6] = Cytotoxicity against human HUVEC cells assessed as cell viability upto 100 uM incubated for 4 hrs by MTS assay; assay type: toxicity, cell-based; details: read-out: Activity
[7] = target: T1, Matrix metalloproteinase-14; assay: Binding affinity to […] sensor chip immobilized MMP-14 catalytic domain (unknown origin) assessed as equilibrium dissociation constant by surface plasmon resonance analysis
[8] = target: T3, Matrilysin (Homo sapiens) (UniProt P09237); assay: Inhibition of MMP-7 (unknown origin) using QXL520-gamma-Abu-Pro-Cha-Abu-Smc-His-Ala-Dab(5-FAM)-Ala-Lys-NH2 as fluorogenic substrate at 1 to 100 uM preincubated for 10 mins followed by substrate addition and measured for 25 mins by microplate reader assay; details: dose 1-100 µM, time 35.0 min
T3 sequence (whole entry): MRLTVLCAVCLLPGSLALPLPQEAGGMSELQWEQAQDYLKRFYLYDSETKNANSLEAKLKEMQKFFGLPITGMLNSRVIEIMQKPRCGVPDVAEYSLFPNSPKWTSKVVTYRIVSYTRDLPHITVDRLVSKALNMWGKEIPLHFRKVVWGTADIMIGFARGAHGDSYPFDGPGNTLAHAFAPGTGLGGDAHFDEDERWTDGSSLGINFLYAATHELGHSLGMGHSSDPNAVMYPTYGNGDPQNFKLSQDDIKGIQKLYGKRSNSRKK

[9] = target: 72 kDa type IV collagenase (Homo sapiens) (UniProt P08253); assay: Inhibition of MMP-2 (unknown origin) using QXL520-gamma-Abu-Pro-Cha-Abu-Smc-His-Ala-Dab(5-FAM)-Ala-Lys-NH2 as fluorogenic substrate at 1 to 100 uM preincubated for 10 mins followed by substrate addition and measured for 25 mins by microplate reader assay; details: dose 1-100 µM, time 35.0 min
[10] = target: T4, Matrix metalloproteinase-9 (Homo sapiens, UniProt P14780); assay: Inhibition of MMP-9 (unknown origin) using QXL520-gamma-Abu-Pro-Cha-Abu-Smc-His-Ala-Dab(5-FAM)-Ala-Lys-NH2 as fluorogenic substrate preincubated for 10 mins followed by substrate addition and measured for 25 mins by microplate reader assay
[11] = target: T4, Matrix metalloproteinase-9; assay: Inhibition of MMP-9 (unknown origin) using QXL520-gamma-Abu-Pro-Cha-Abu-Smc-His-Ala-Dab(5-FAM)-Ala-Lys-NH2 as fluorogenic substrate at 1 to 100 uM preincubated for 10 mins followed by substrate addition and measured for 25 mins by microplate reader assay; details: dose 1-100 µM, time 35.0 min
Collagenase 3 [12] = target: T2, Collagenase 3; assay: Inhibition of MMP-13 (unknown origin) using QXL520-gamma-Abu-Pro-Cha-Abu-Smc-His-Ala-Dab(5-FAM)-Ala-Lys-NH2 as fluorogenic substrate at 1 to 100 uM preincubated for 10 mins followed by substrate addition and measured for 25 mins by microplate reader assay; details: dose 1-100 µM, time 35.0 min
Collagenase 3 [13] = target: T2, Collagenase 3; assay: Inhibition of MMP-13 (unknown origin) using QXL520-gamma-Abu-Pro-Cha-Abu-Smc-His-Ala-Dab(5-FAM)-Ala-Lys-NH2 as fluorogenic substrate at 100 uM preincubated for 10 mins followed by substrate addition and measured for 25 mins by microplate reader assay; details: time 35.0 min
[14] = target: 72 kDa type IV collagenase (Homo sapiens) (UniProt P08253); assay: Inhibition of MMP-2 (unknown origin) using QXL520-gamma-Abu-Pro-Cha-Abu-Smc-His-Ala-Dab(5-FAM)-Ala-Lys-NH2 as fluorogenic substrate at 100 uM preincubated for 10 mins followed by substrate addition and measured for 25 mins by microplate reader assay; details: time 35.0 min
[15] = target: T3, Matrilysin (Homo sapiens); assay: Inhibition of MMP-7 (unknown origin) using QXL520-gamma-Abu-Pro-Cha-Abu-Smc-His-Ala-Dab(5-FAM)-Ala-Lys-NH2 as fluorogenic substrate at 100 uM preincubated for 10 mins followed by substrate addition and measured for 25 mins by microplate reader assay; details: time 35.0 min
[16] = target: T4, Matrix metalloproteinase-9; assay: Inhibition of MMP-9 (unknown origin) using QXL520-gamma-Abu-Pro-Cha-Abu-Smc-His-Ala-Dab(5-FAM)-Ala-Lys-NH2 as fluorogenic substrate at 100 uM preincubated for 10 mins followed by substrate addition and measured for 25 mins by microplate reader assay; details: time 35.0 min

Chain of 72 kDa type IV collagenase (Mus musculus) (P33434 whole entry): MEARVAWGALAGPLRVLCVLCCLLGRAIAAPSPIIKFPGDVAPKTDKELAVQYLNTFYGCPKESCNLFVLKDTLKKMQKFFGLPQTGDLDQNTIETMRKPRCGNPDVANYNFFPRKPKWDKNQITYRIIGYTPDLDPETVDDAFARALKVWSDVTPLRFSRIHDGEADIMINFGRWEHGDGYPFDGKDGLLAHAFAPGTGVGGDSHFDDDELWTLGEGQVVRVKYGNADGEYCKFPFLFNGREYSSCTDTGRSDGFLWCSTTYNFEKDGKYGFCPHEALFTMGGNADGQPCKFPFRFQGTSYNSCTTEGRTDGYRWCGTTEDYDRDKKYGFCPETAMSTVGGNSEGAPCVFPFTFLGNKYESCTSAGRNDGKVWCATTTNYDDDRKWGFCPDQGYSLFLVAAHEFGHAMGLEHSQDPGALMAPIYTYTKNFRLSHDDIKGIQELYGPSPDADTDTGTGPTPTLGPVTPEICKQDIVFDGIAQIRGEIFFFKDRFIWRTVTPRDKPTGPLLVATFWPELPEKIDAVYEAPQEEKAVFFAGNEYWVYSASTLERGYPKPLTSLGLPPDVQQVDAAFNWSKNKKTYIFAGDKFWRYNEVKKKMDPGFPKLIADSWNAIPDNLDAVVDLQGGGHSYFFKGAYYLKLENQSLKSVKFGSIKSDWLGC
T4 sequence (P14780 whole entry): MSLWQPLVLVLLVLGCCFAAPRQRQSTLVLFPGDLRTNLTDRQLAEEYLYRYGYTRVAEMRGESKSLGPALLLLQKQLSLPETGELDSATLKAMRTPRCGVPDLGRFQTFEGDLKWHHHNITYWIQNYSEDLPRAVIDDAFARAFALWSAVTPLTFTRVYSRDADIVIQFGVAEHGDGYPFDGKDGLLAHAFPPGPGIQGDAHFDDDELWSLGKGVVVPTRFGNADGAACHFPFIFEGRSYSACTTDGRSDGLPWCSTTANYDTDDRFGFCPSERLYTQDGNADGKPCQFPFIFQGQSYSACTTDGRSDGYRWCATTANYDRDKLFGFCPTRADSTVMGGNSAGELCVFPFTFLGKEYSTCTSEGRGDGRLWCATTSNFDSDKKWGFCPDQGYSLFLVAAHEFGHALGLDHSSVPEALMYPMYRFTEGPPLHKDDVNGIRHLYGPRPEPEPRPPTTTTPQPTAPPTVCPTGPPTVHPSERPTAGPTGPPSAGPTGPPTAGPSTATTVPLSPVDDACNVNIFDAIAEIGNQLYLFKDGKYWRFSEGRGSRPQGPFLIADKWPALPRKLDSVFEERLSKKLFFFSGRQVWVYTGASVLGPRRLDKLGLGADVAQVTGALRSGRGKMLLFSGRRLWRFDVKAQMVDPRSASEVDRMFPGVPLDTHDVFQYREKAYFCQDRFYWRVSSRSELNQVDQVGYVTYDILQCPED
Chain of 72 kDa type IV collagenase (Homo sapiens) (P08253 110-660 limits assumed): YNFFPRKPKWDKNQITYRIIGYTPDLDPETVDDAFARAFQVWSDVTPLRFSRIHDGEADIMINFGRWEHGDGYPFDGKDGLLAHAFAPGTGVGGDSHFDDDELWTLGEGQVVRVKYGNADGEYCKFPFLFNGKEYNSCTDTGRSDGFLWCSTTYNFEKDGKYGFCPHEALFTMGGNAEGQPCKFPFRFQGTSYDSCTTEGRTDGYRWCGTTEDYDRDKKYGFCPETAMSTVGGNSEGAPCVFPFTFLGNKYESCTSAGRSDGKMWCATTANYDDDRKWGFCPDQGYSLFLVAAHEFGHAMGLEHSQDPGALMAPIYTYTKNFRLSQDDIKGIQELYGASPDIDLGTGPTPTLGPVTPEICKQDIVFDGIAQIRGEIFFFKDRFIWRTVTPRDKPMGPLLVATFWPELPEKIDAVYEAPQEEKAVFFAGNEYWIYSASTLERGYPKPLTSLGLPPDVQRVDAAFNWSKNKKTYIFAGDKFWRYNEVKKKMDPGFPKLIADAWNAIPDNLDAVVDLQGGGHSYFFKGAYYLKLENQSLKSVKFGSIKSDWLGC

| Structure (SMILES) | inhibition [1] | inhibition [2] | inhibition [3] | IC50 [4] [µM] | IC50 (Collagenase 3 [5]) [µM] | viability at 4 h, up to 100 µM [6] [%] | Kd [7] [µM] | inhibition [8] | inhibition [9] | IC50 [10] [µM] | inhibition [11] | inhibition (Collagenase 3 [12]) | inhibition (Collagenase 3 [13]) [%] | inhibition [14] [%] | inhibition [15] [%] | inhibition [16] [%] |
| --- | --- | --- | --- | --- | --- | --- | --- | --- | --- | --- | --- | --- | --- | --- | --- | --- |
| CCCC(C)C1(CC)C(=O)NC(=O)NC1=O (stereo unspecified) | > 85% | – | – | – | – | – | – | – | – | – | – | – | – | – | – | – |
| Nc1cc(Cl)c2cccnc2c1O | – | Dose-Dependent Effect | Active | 71.2 | – | – | – | – | – | – | – | – | – | – | – | – |
| Oc1c(Cl)cc(Cl)c2cccnc12 [CHLOROXINE] | Active | – | Active | 25.6 | 19.6 | > 95 | 2.4 | inactive | inactive | 15.9 | – | – | – | – | – | – |
| Oc1c(I)cc(Cl)c2cccnc12 [CLIOQUINOL] | 83% | – | Active | 26.9 | – | > 95 | 1.2 | inactive | inactive | – | inactive | inactive | < 5 | < 5 | < 5 | < 5 |
